Experimental data taken from patent publication US8124624B2, “Substituted sulfonamide compounds” (Gruenenthal GmbH, priority 2008, dated 2012).
Like-named read-outs stand apart in the source and are kept apart here.

Key:
[1] = target: T1, B1R of the rat (Rattus norvegicus, UniProt P97583); assay: FLIPR Ca2+ influx assay, B1R antagonism, rat (rB1R CHO K1 cells); format: cell-based
T1 construct: expressed in transfected cells; host or cells: CHO K1 cells (rB1R cells)
T1 sequence (P97583 1-337): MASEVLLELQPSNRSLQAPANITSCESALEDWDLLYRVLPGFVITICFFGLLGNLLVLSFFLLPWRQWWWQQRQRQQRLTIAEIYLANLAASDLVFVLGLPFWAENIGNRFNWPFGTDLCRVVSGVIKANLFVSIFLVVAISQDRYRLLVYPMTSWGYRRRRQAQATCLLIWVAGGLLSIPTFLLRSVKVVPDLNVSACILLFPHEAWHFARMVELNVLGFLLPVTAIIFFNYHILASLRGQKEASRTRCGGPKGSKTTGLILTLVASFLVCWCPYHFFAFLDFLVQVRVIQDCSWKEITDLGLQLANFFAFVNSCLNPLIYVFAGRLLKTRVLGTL
Experimental: (§1) The agonistic or antagonistic action of substances can be quantified on the bradykinin receptor 1 (B1R) of the species human and rat using ectopically expressing cell lines (CHO K1 cells) and with the aid of a Ca^2+-sensitive dye (Fluo-4) using a fluorescent imaging plate reader (FLIPR). The indication in % activation is based on the Ca^2+ signal after addition of Lys-Des-Arg^9-bradykinin (0.5 nM) or Des-Arg^9-bradykinin (100 nM). Antagonists lead to suppression of the Ca^2+ influx after the addition of the agonist. % Inhibition compared with the maximum achievable inhibition is indicated.
(§2) The agonistic or antagonistic action of substances can be determined on the bradykinin receptor 1 (B1R) of the species human and rat using the following assay. According to this assay, the Ca^2+ influx through the channel is quantified with the aid of a Ca^2+-sensitive dye (Fluo-4 type, Molecular Probes Europe BV, Leiden, Netherlands) using a Fluorescent Imaging Plate Reader (FLIPR, Molecular Devices, Sunnyvale, USA).
(§3) Chinese hamster ovary cells (CHO K1 cells) which have been stably transfected with the human B1R gene (hB1R cells) or with the B1R gene of the rat (rB1R cells) are used. For functional studies, the cells are plated out on black 96-well plates having a clear base (BD Biosciences, Heidelberg, Germany or Greiner, Frickenhausen, Germany) in a density of 20,000-35,000 cells/well. The cells are incubated overnight at 37° C. and with 5% CO2 in culture medium (hB1R cells: Nutrient Mixture Ham's F12, Gibco Invitrogen GmbH, Karlsruhe, Germany or DMEM, Sigma-Aldrich, Taufkirchen, Germany; rB1R cells: D-MEM/F12, Gibco Invitrogen GmbH, Karlsruhe, Germany), with 10 vol. % FBS (fetal bovine serum, Gibco Invitrogen GmbH, Karlsruhe, Germany or PAN Biotech GmbH, Aidenbach, Germany).
(§4) On the following day, the cells are loaded for 60 minutes at 37° C. with 2.13 μM Fluo-4 (Molecular Probes Europe BV, Leiden, Netherlands) in HBSS buffer (Hank's buffered saline solution, Gibco Invitrogen GmbH, Karlsruhe, Germany) […] (Sigma-Aldrich, Taufkirchen, Germany) and 10 mM HEPES (Sigma-Aldrich, Taufkirchen, Germany). The plates are then washed twice with HBSS buffer, and HBSS buffer additionally containing 0.1% BSA (bovine serum albumin; Sigma-Aldrich, Taufkirchen, Germany), 5.6 mM glucose and 0.05% gelatin (Merck KGaA, Darmstadt, Germany) is added to the plates. After incubation for a further 20 minutes at room temperature, the plates are inserted into the FLIPR for Ca^2+ measurement.
(§5) Alternatively, washing is carried out with buffer A (15 mM HEPES, 80 mM NaCl, 5 mM KCl, 1.2 mM CaCl2, 0.7 mM MgSO4, 2 g/l glucose, 2.5 mM probenecid) followed by loading with buffer A with added 2.5 μM Fluo-4 and 0.025% Pluronic F127 (Sigma-Aldrich, Taufkirchen, Germany). The cells are then washed twice with buffer A and incubated for 30 minutes at room temperature with buffer A additionally containing 0.05% BSA and 0.05% gelatin and are then inserted into the FLIPR for Ca^2+ measurement.
(§6) The Ca^2+-dependent fluorescence is measured before and after the addition of substances (λex=488 nm, λem=540 nm). Quantification is carried out by measuring the highest fluorescence intensity (FC, fluorescence counts) over time.
(§7) The FLIPR protocol consists of two substance additions. Test substances (10 μM) are first pipetted onto the cells and the Ca^2+ influx is compared with the control (hB1R: Lys-Des-Arg^9-bradykinin >=50 nM; rB1R: Des-Arg^9-bradykinin 10 μM). This gives the activation in %, based on the Ca^2+ signal after addition of Lys-Des-Arg^9-bradykinin (>=50 nM) or Des-Arg^9-bradykinin (10 μM). After 10-20 minutes' incubation, Lys-Des-Arg^9-bradykinin (hB1R) or Des-Arg^9-bradykinin (rB1R) is applied in the concentration of the EC80, and the influx of Ca^2+ is likewise determined. Antagonists lead to suppression of the Ca^2+ influx. The % inhibition compared with the maximum achievable inhibition is calculated. […]

[2] = target: T2, human B1R (Homo sapiens, UniProt P46663); assay: FLIPR Ca2+ influx assay, B1R antagonism, human (hB1R CHO K1 cells); format: cell-based
T2 construct: expressed in transfected cells; host or cells: CHO K1 cells (hB1R cells)
T2 sequence (P46663 1-353): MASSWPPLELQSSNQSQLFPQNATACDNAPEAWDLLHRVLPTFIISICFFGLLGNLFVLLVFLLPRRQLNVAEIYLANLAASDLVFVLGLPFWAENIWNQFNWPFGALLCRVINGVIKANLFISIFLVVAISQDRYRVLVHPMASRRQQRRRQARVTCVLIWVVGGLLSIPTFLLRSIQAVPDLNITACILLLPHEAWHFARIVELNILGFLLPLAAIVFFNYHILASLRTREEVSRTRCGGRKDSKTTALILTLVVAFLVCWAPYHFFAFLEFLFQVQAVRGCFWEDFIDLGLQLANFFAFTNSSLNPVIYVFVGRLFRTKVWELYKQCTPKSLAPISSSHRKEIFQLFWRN
Experimental: as §1, §2, §3, §4, §5, §6, §7

[3] = CHO-K1, read-out: B1R antagonism, rat [10 μM] % inhibition
[4] = CHO-K1, read-out: B1R antagonism, human [10 μM] % inhibition
[5] = test substance 10 μM, CHO K1 cells stably transfected with rat B1R, agonist Des-Arg9-bradykinin at EC80, % inhibition compared with maximum achievable inhibition, read-out: B1R antagonism, rat [10 μM] % inhibition
[6] = test substance 10 μM, CHO K1 cells stably transfected with human B1R, agonist Lys-Des-Arg9-bradykinin at EC80, % inhibition compared with maximum achievable inhibition, read-out: B1R antagonism, human [10 μM] % inhibition

Compound | inhibition at 10 µM [1, 3] | inhibition at 10 µM [2, 4] | inhibition at 10 µM [1, 5] | inhibition at 10 µM [2, 6]
COc1cc(C)c(S(=O)(=O)N(C)CCOCC(=O)N2CCC(CCN3CCCC3)(c3cccnc3)CC2)c(C)c1 [Example 3, 4-Methoxy-N,2,6-trimethyl-N-(2-(2-oxo-2-(4-(pyridin-3-yl)-4-(2-(pyrrolidin-1-yl)ethyl)piperidin-1-yl)ethoxy)ethyl)benzenesulfonamide] | 101% | 103% |  | 
O=C(CC1CCCCN1S(=O)(=O)c1cccc(C(F)(F)F)c1)N1CCC(CCN2CCCC2)(c2cccnc2)CC1 (stereo not drawn) [Example 4, 1-(4-(Pyridin-3-yl)-4-(2-(pyrrolidin-1-yl)ethyl)piperidin-1-yl)-2-(1-(3-(trifluoromethyl)phenylsulfonyl)piperidin-2-yl)ethanone] | 102% | 103% |  | 
Cc1cc(S(=O)(=O)N2CCCCC2CCC(=O)N2CCC(CCN3CCCC3)(c3cccnc3)CC2)c(C)cc1Cl (stereo not drawn) [Example 5, 3-(1-(4-Chloro-2,5-dimethylphenylsulfonyl)piperidin-2-yl)-1-(4-(pyridin-3-yl)-4-(2-(pyrrolidin-1-yl)ethyl)piperidin-1-yl)propan-1-one] |  |  | 61% | 101%
O=C(COCC1CCc2ccccc2N1S(=O)(=O)c1ccc(Cl)c(Cl)c1)N1CCC(CCN2CCCC2)(c2cccnc2)CC1 (stereo not drawn) [Example 6, 2-((1-(3,4-Dichlorophenylsulfonyl)-1,2,3,4-tetrahydroquinolin-2-yl)methoxy)-1-(4-(pyridin-3-yl)-4-(2-(pyrrolidin-1-yl)ethyl)piperidin-1-yl)ethanone] |  |  | 85% | 100%
CN(C)CCC1(c2cccnc2)CCN(C(=O)CC(NS(=O)(=O)c2ccc3ccccc3c2)c2ccccc2)CC1 (stereo not drawn) [Example 7, N-(3-(4-(2-(Dimethylamino)ethyl)-4-(pyridin-3-yl)piperidin-1-yl)-3-oxo-1-phenylpropyl)naphthalene-2-sulfonamide] |  |  | 37% | 89%
COc1cc(C)c(S(=O)(=O)N2CCCCC2COCC(=O)N2CCC(CCN(C)C)(c3cccnc3)CC2)c(C)c1 (stereo not drawn) [Example 8, 1-(4-(2-(Dimethylamino)ethyl)-4-(pyridin-3-yl)piperidin-1-yl)-2-((1-(4-methoxy-2,6-dimethylphenylsulfonyl)piperidin-2-yl)methoxy)ethanone] |  |  | 102% | 104%
COc1cc(C)c(S(=O)(=O)N(C)CCOCC(=O)N2CCC(CCN(C)C)(c3cccnc3)CC2)c(C)c1 [Example 9, N-(2-(2-(4-(2-(Dimethylamino)ethyl)-4-(pyridin-3-yl)piperidin-1-yl)-2-oxoethoxy)ethyl)-4-methoxy-N,2,6-trimethylbenzenesulfonamide] |  |  | 102% | 104%
CN(C)CCC1(c2cccnc2)CCN(C(=O)CC2CCCCN2S(=O)(=O)c2cccc(C(F)(F)F)c2)CC1 (stereo not drawn) [Example 10, 1-(4-(2-(Dimethylamino)ethyl)-4-(pyridin-3-yl)piperidin-1-yl)-2-(1-(3-(trifluoromethyl)phenylsulfonyl)piperidin-2-yl)ethanone] |  |  | 65% | 103%
Cc1cc(S(=O)(=O)N2CCCCC2CCC(=O)N2CCC(CCN(C)C)(c3cccnc3)CC2)c(C)cc1Cl (stereo not drawn) [Example 11, 3-(1-(4-Chloro-2,5-dimethylphenylsulfonyl)piperidin-2-yl)-1-(4-(2-(dimethylamino)ethyl)-4-(pyridin-3-yl)piperidin-1-yl)propan-1-one] |  |  | 101% | 102%
CN(C)CCC1(c2cccnc2)CCN(C(=O)COCC2CCc3ccccc3N2S(=O)(=O)c2ccc(Cl)c(Cl)c2)CC1 (stereo not drawn) [Example 12, 2-((1-(3,4-Dichlorophenylsulfonyl)-1,2,3,4-tetrahydroquinolin-2-yl)methoxy)-1-(4-(2-(dimethylamino)ethyl)-4-(pyridin-3-yl)piperidin-1-yl)ethanone] |  |  | 90% | 103%
COc1cc(C)c(S(=O)(=O)N(C)CCOCC(=O)N2CCC(CCCN3CCCC3)(c3cccnc3)CC2)c(C)c1 [Example 13, 4-Methoxy-N,2,6-trimethyl-N-(2-(2-oxo-2-(4-(pyridin-3-yl)-4-(3-(pyrrolidin-1-yl)propyl)piperidin-1-yl)ethoxy)ethyl)benzenesulfonamide] |  |  | 101% | 97%
O=C(CC1CCCCN1S(=O)(=O)c1cccc(C(F)(F)F)c1)N1CCC(CCCN2CCCC2)(c2cccnc2)CC1 (stereo not drawn) [Example 14, 1-(4-(Pyridin-3-yl)-4-(3-(pyrrolidin-1-yl)propyl)piperidin-1-yl)-2-(1-(3-(trifluoromethyl)phenylsulfonyl)piperidin-2-yl)ethanone] |  |  | 64% | 35%
Cc1cc(S(=O)(=O)N2CCCCC2CCC(=O)N2CCC(CCCN3CCCC3)(c3cccnc3)CC2)c(C)cc1Cl (stereo not drawn) [Example 15, 3-(1-(4-Chloro-2,5-dimethylphenylsulfonyl)piperidin-2-yl)-1-(4-(pyridin-3-yl)-4-(3-(pyrrolidin-1-yl)propyl)piperidin-1-yl)propan-1-one] |  |  | 76% | 84%
COc1cc(C)c(S(=O)(=O)N2CCCCC2COCC(=O)N2CCC(CCCN3CCCC3)(c3cccnc3)CC2)c(C)c1 (stereo not drawn) [Example 16, 2-((1-(4-Methoxy-2,6-dimethylphenylsulfonyl)piperidin-2-yl)methoxy)-1-(4-(pyridin-3-yl)-4-(3-(pyrrolidin-1-yl)propyl)piperidin-1-yl)ethanone] |  |  | 102% | 97%
O=C(CC(NS(=O)(=O)c1ccc2ccccc2c1)c1ccccc1)N1CCC(CCCN2CCCC2)(c2cccnc2)CC1 (stereo not drawn) [Example 17, N-(3-Oxo-1-phenyl-3-(4-(pyridin-3-yl)-4-(3-(pyrrolidin-1-yl)propyl)piperidin-1-yl)propyl)naphthalene-2-sulfonamide] |  |  | 81% | 94%
